Reference: patent US9169241B2, “Quinolinyloxyphenylsulfonamides” (Max-Planck-Gesellschaft Zur Forderung der Wissenschaften …, priority 2009, dated 2015)
Where two headings read alike, the source gives them in different places.

Experiments:
Type in all cases: cell-based
viable cells in culture = assay: Cell viability assay at 10 μM (CellTiter-Glo, Table VII); conditions: compound 10 μM, 72 h;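 further: graded A 0-20%; B 21-40%; C 41-60%; D over 60% viable cells relative to DMSO control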
Procedure, shortened: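 Viable cell number was measured with the CellTiter-Glo Luminescent Cell Viability Assay (Promega), following the manufacturer's protocol, which quantifies ATP as a marker of metabolically active cells. In 96-well plates, 1000 cells/well in 100 μl medium were exposed to compound at 10 μM, or to DMSO control, for 72 h. Values were calculated relative to DMSO-control ATP.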

SF126 [1] = assay: Matrigel outgrowth assay/branching assay; conditions: Homo sapiens, SF-126, Table Vb, read-out: Total branching inhibition in Matrigel SF126
Procedure, shortened: (§1)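 Read-out: microscopic images of invasive branching structures at 48 h, 72 h and 96 h. Cells sat on a 3 mg/ml Matrigel layer (set 1 h, 37° C) with compound at 3.125, 1.56 and 0.78 μM or DMSO. A concentration counts as positive only with complete branching inhibition.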

A172 = assay: Matrigel outgrowth assay/branching assay; conditions: Homo sapiens, A 172, Table Vb, read-out: Total branching inhibition in Matrigel A172
Procedure, shortened: as §1

U118 [2] = assay: Matrigel outgrowth assay/branching assay; conditions: Table Vb, read-out: Total branching inhibition in Matrigel U118
Procedure, shortened: as §1

SF126 [3] = assay: Apoptosis assay (Cellomics, nucleus condensation); conditions: Homo sapiens, SF-126, Table III, read-out: Apoptosis induction in SF126
Procedure, shortened: (§2)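 5000 cells/well, Hoechst 33342 live stain; cpd 12.5, 6.25, 3.125, 1.56, 0.78, 0.39 μM or DMSO; imaged 24 h + 48 h; nuclear condensation = intensity variation per nucleus; cell number loss noted.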

Hs578T = assay: Apoptosis assay (Cellomics, nucleus condensation); conditions: Homo sapiens, Hs-578T, Table III, read-out: Apoptosis induction in Hs578T
Procedure, shortened: as §2

C8161 = assay: Apoptosis assay (Cellomics, nucleus condensation); conditions: Homo sapiens, Table III, read-out: Apoptosis induction in C8161
Procedure, shortened: as §2

SF763 = assay: Apoptosis assay (Cellomics, nucleus condensation); conditions: Table III, read-out: Apoptosis induction in SF763
Procedure, shortened: as §2

U138 = assay: Apoptosis assay (Cellomics, nucleus condensation); conditions: Table III, read-out: Apoptosis induction in U138
Procedure, shortened: as §2

U118 [4] = assay: Apoptosis assay (Cellomics, nucleus condensation); conditions: Table III, read-out: Apoptosis induction in U118
Procedure, shortened: as §2

[5] = Homo sapiens, HCT-116, HCT116 def, read-out: percentage (%) of viable cells HCT 116def
[6] = Homo sapiens, HCT-116, HCT116 wt, read-out: percentage (%) of viable cells HCT 116wt
[7] = Homo sapiens, HT-29, HT29, read-out: percentage (%) of viable cells HT29
[8] = Homo sapiens, NCI-H358, H358, read-out: percentage (%) of viable cells H358
[9] = Homo sapiens, NCI-H1650, H1650, read-out: percentage (%) of viable cells H1650
[10] = Homo sapiens, NCI-H1666, H1666, read-out: percentage (%) of viable cells H1666
[11] = Homo sapiens, NCI-H1975, H1975, read-out: percentage (%) of viable cells H1975
[12] = Homo sapiens, NCI-H1993, H1993, read-out: percentage (%) of viable cells H1993
[13] = Homo sapiens, A549, read-out: percentage (%) of viable cells A549
[14] = Homo sapiens, HCC827, read-out: percentage (%) of viable cells HCC827
[15] = Homo sapiens, SW480, read-out: percentage (%) of viable cells SW480
[16] = RKO, read-out: percentage (%) of viable cells RKO

| IC50 (SF126 [3]) [µM] | IC50 (Hs578T) [µM] | IC50 (C8161) [µM] | IC50 (SF763) [µM] | IC50 (U138) [µM] | SMILES | viability at 10 µM (viable cells in culture; [5]) [%] | viability at 10 µM (viable cells in culture; [6]) [%] | viability at 10 µM (viable cells in culture; [7]) [%] | viability at 10 µM (viable cells in culture; [8]) [%] | viability at 10 µM (viable cells in culture; [9]) [%] | viability at 10 µM (viable cells in culture; [10]) [%] | viability at 10 µM (viable cells in culture; [11]) [%] | viability at 10 µM (viable cells in culture; [12]) [%] | viability at 10 µM (viable cells in culture; [13]) [%] | viability at 10 µM (viable cells in culture; [14]) [%] | viability at 10 µM (viable cells in culture; [15]) [%] | viability at 10 µM (viable cells in culture; [16]) [%] | IC100 (SF126 [1]) [µM] | IC100 (A172) [µM] | IC100 (U118 [2]) [µM] | further results |
| --- | --- | --- | --- | --- | --- | --- | --- | --- | --- | --- | --- | --- | --- | --- | --- | --- | --- | --- | --- | --- | --- |
| ≤ 12.5 | ≤ 12.5 | ≤ 12.5 | ≤ 12.5 | ≤ 12.5 | COc1cc2c(Oc3ccc(NS(=O)(=O)c4ccccc4Cl)cc3F)ccnc2cc1OCCCN1CCCC(C)C1 (stereo not drawn) [Example 38, 2-Chloro-N-(3-fluoro-4-{6-methoxy-7-[3-(3-methyl-piperidin-1-yl)-propoxy]-quinolin-4-yloxy}-phenyl)-benzenesulfonamide] | 21 to 40 | 21 to 40 | 0 to 20 | 0 to 20 | > 60 | 21 to 40 | 21 to 40 | 21 to 40 | > 60 | 41 to 60 | 0 to 20 | 0 to 20 | ≤ 12.5 | ≤ 12.5 | > 12.5 | IC50 (U118 [4]): ≤ 12.5 µM |
| ≤ 12.5 | ≤ 12.5 | ≤ 12.5 | ≤ 12.5 | 12.5 to 50 | COc1cc2c(Oc3ccc(NS(=O)(=O)c4cccc(-c5ccccc5)c4)cc3F)ccnc2cc1OCCCN1CCCCC1 [Example 8, Biphenyl-3-sulfonic acid {3-fluoro-4-[6-methoxy-7-(3-piperidin-1-yl-propoxy)-quinolin-4-loxy]-phenyl}-amide] | 0 to 20 | 0 to 20 | 21 to 40 | 0 to 20 | 0 to 20 | 21 to 40 | 0 to 20 | 0 to 20 | 41 to 60 | 0 to 20 | 0 to 20 | 21 to 40 | ≤ 12.5 | ≤ 12.5 | ≤ 12.5 | IC50 (U118 [4]): ≤ 12.5 µM |
| ≤ 12.5 | ≤ 12.5 | ≤ 12.5 | ≤ 12.5 | ≤ 12.5 | COc1cc2c(Oc3ccc(NS(=O)(=O)c4c(F)cccc4F)cc3F)ccnc2cc1OCCCN1CCOCC1 [Example 77, 2,6-Difluoro-N-{3-fluoro-4-[6-methoxy-7-(3-morpholin-4-yl-propoxy)-quinolin-4-yloxy]-phenyl}-benzenesulfonamide] | 21 to 40 | 0 to 20 | 41 to 60 | 0 to 20 | 21 to 40 | 41 to 60 | 0 to 20 | 21 to 40 | 41 to 60 | > 60 | 0 to 20 | 21 to 40 | ≤ 12.5 | > 12.5 | ≤ 12.5 | IC50 (U118 [4]): ≤ 12.5 µM |

| SMILES | IC50 (SF126 [3]) [µM] | IC50 (Hs578T) [µM] | IC50 (C8161) [µM] | IC50 (SF763) [µM] | IC50 (U138) [µM] | viability at 10 µM (viable cells in culture; [5]) [%] | viability at 10 µM (viable cells in culture; [6]) [%] | viability at 10 µM (viable cells in culture; [7]) [%] | viability at 10 µM (viable cells in culture; [8]) [%] | viability at 10 µM (viable cells in culture; [9]) [%] | viability at 10 µM (viable cells in culture; [10]) [%] | viability at 10 µM (viable cells in culture; [11]) [%] | viability at 10 µM (viable cells in culture; [12]) [%] | viability at 10 µM (viable cells in culture; [13]) [%] | viability at 10 µM (viable cells in culture; [14]) [%] | viability at 10 µM (viable cells in culture; [15]) [%] | viability at 10 µM (viable cells in culture; [16]) [%] | IC100 (SF126 [1]) [µM] | IC100 (A172) [µM] | IC100 (U118 [2]) [µM] | further results |
| --- | --- | --- | --- | --- | --- | --- | --- | --- | --- | --- | --- | --- | --- | --- | --- | --- | --- | --- | --- | --- | --- |
| COc1cc2c(Oc3ccc(NS(=O)(=O)c4cc(F)ccc4F)cc3F)ccnc2cc1OCCCN1CCCCC1 [Example 1, 2,5-Difluoro-N-{3-fluoro-4-[6-methoxy-7-(3-piperidin-1-yl-propoxy)-quinolin-4-yloxy]-phenyl}-benzenesulfonamide] | ≤ 12.5 | ≤ 12.5 | ≤ 12.5 | 12.5 to 50 | ≤ 12.5 | 0 to 20 | 0 to 20 | 21 to 40 | 0 to 20 | 41 to 60 | 41 to 60 | 21 to 40 | 21 to 40 | > 60 | 21 to 40 | 0 to 20 | 0 to 20 | ≤ 12.5 | ≤ 12.5 | ≤ 12.5 | IC50 (U118 [4]): ≤ 12.5 µM |
| COc1cc2c(Oc3ccc(NS(=O)(=O)c4ccccc4C(F)(F)F)cc3F)ccnc2cc1OCCCN(C)C [Example 100, N-{4-[7-(3-Dimethylamino-propoxy)-6-methoxy-quinolin-4-yloxy]-3-fluoro-phenyl}-2-trifluoromethyl-benzenesulfonamide] | ≤ 12.5 | ≤ 12.5 | ≤ 12.5 | ≤ 12.5 | ≤ 12.5 | 0 to 20 | 0 to 20 | 21 to 40 | 0 to 20 | 21 to 40 | 21 to 40 | 41 to 60 | 41 to 60 | > 60 | 21 to 40 | 0 to 20 | 0 to 20 | ≤ 12.5 | > 12.5 | ≤ 12.5 | IC50 (U118 [4]): 12.5 to 50 µM |
